Experimental data as given in PMC7797213, “Vascular effects of serelaxin in patients with stable coronary artery disease: a randomized placebo-controlled trial” (Cardiovascular Research, 2020).

Assays:
Format in all cases: in vivo, human
[1] = system: patients with stable coronary artery disease; assay: Adverse events and serious adverse events
Protocol: All adverse events (AEs) were recorded along with investigator-reported seriousness, intensity, and relationship to study drug.

[2] = system: patients with stable coronary artery disease; assay: CMR left and right ventricular volumes and ejection fraction
From the text: A standardized CMR protocol was acquired on 1.5 T (Siemens Avanto) or 3.0 T (Siemens Skyra and Verio) magnetic resonance imaging (MRI) scanners. The CMR protocol included standard localizers, long- and short-axis cine acquisitions, stress and rest first-pass perfusion, and late gadolinium enhancement (LGE) imaging as previously described.[24] For perfusion imaging, a saturation recovery prepared fast gradient echo sequence was used to acquire dynamic contrast-enhanced CMR during adenosine stress (140–280 µg/kg/min for 3 min) and rest, during first-pass of the IV administered contrast agent (Gadovist, 0.05 mmol/kg, 5 mL/s), followed by 20 mL saline injection (5 mL/s). Three short-axis planes through the left ventricle (basal, mid-ventricular, and apical) were obtained. […]
CMR image collection, blinding, and handling were managed by an independent imaging contract-research organization (CRO; VirtualScopics, Inc., Rochester, NY, USA). The CMR quantitative analyses were performed by blinded academic readers with >3 years of CMR experience (D.C., A.R., and C.B.). […] Global MPR was calculated from the ratio of global MBF evaluated at stress and at rest (MPR = stress MBF/rest MBF). Global MBF was calculated by averaging the MBF (mL/g/min) for basal, mid, and apical short-axis left ventricular slices. […] The presence or absence of myocardial scar was qualitatively assessed on the LGE images.

cystatin C = assay: Plasma biomarker cystatin C; details: for Cystatin C, geo-mean (95% CI): plasma
Protocol: (§1) Biomarkers reported include: N-terminal pro-brain natriuretic peptide (NT-proBNP), high-sensitivity troponin T (hsTnT) measured to assess myocardial safety; cystatin C measured to access renal function; the biologically active form of endothelin-1 (1–21), measured to assess vascular function. Venous blood samples were collected at 0 (pre-dose), 24, 48, and 54 h, Day 30, and Day 180. NT-proBNP, hsTnT, and cystatin C samples were collected in EDTA tubes while endothelin-1 samples were collected in EDTA tubes containing aprotinin. Plasma was immediately frozen at −70°C pending analysis in complete patient sets. Commercial biomarker kits were as follows: hsTnT from Roche Diagnostics GmbH, Germany; cystatin C from Gentian, Moss, Norway; and active endothelin-1 […] from Biomedica Medizinprodukte, Vienna, Austria.
(§2) For the biomarker analyses, baseline was defined as the pre-dose assessment on Day 1. Raw values as well as changes from baseline were summarized by treatment and time. Descriptive statistics included geometric mean and 95% CI. For geometric means of change from baseline, a ratio to baseline was used to determine percentage change by first calculating in the log domain and then back transforming using exponentiation.
(§3) Baseline corresponds to the value at day 1 pre-dose. For change from baseline, geometric mean and its CI are calculated for the value (post) to baseline ratio.

endothelin-1 = assay: Plasma biomarker endothelin-1; details: for Endothelin-1, geo-mean (95% CI): plasma
Protocol: as §1, §2, §3

[3] = Immunogenicity: serum anti-serelaxin antibodies; details: Day 1 (baseline) and Day 30, all patients
Protocol: Blood was collected on Day 1 (baseline) and post-dose on Day 30 for assessment of immunogenicity. Serum anti-serelaxin antibody concentrations were evaluated using a validated four-tiered assay approach for antibody screening, confirmation, titration, and neutralizing antibody detection, when applicable.

[4] = Serum serelaxin pharmacokinetics (ELISA, non-compartmental)
Protocol: Blood samples (approximately 2 mL) for pharmacokinetic (PK) evaluation were collected at 0 (pre-dose), 24, 48, 50, and 54 h, and Day 30. Serum serelaxin concentration was determined by an enzyme-linked immunosorbent assay, developed and validated based upon a commercially available kit (Quantikine ELISA kit, R&D systems, MN, USA).[29] The PK parameters were calculated using non-compartmental methods that included steady-state concentration (Css) and systemic clearance (CL). Css was estimated using the serum concentration determined at 48 h, while CL was estimated using the rate of infusion and Css for each patient.

[5] = 48 h, n=28, listed as serelaxin

With Serelaxin the “Patients discontinuing the study due to hypotensive events” value ([1]; in vivo) was “No patient”, the “AEs considered causally related to serelaxin” value ([1]; investigator-reported relationship) was “None” and the “Angina pectoris (AE by preferred term)” value ([1]; safety set n=30) was 1 (3) n (%). The “Angina unstable (AE by preferred term)” value ([1]; safety set n=30) was 1 (3) n (%), the “Blood creatinine increased (AE by preferred term)” value ([1]; safety set n=30) was 1 (3) n (%) and the “Dizziness (AE by preferred term)” value ([1]; safety set n=30) was 2 (7) n (%). The “Dyspnoea (AE by preferred term)” value ([1]; safety set n=30) was 2 (7) n (%), the “Haematocrit decreased (AE by preferred term)” value ([1]; safety set n=30) was 1 (3) n (%) and the “Haemoglobin decreased (AE by preferred term)” value ([1]; safety set n=30) was 2 (7) n (%). For the same substance, the “Headache (AE by preferred term)” value ([1]; safety set n=30) was 2 (7) n (%), the “Musculoskeletal pain (AE by preferred term)” value ([1]; safety set n=30) was 2 (7) n (%) and the “Presyncope (AE by preferred term)” value ([1]; safety set n=30) was 0 (0) n (%). For the same substance, the “Subjects with at least one AE” value ([1]; safety set n=30, 48 h IV infusion 30 µg/kg/day, follow-up to Day 180) was 17 (57) n (%), the Deaths ([1]; study period to Day 180) was “No deaths” and the “Left and right ventricular volumes and ejection fractions, change from baseline compared with placebo” value ([2]; baseline to 47 h, CMR) was “no statistically significant changes”. The “Left ventricular ejection fraction, mean value” ([2]; remained in the normal range, no significant changes with serelaxin treatment) was 63%, the “Cystatin C change from baseline, geometric mean ratio to baseline (95% CI)” value (cystatin C; 24 h, n=27) was 0.92 (0.89, 0.94) and the “Cystatin C change from baseline, geometric mean ratio to baseline (95% CI)” value (cystatin C; 48 h, n=28) was 0.93 (0.91, 0.96). For the same substance, the “Cystatin C change from baseline, geometric mean ratio to baseline (95% CI)” value (cystatin C; [5]) was 0.93, the “Cystatin C change from baseline, geometric mean ratio to baseline (95% CI)” value (cystatin C; 54 h, n=27) was 0.87 (0.80, 0.94) and the “Cystatin C change from baseline, geometric mean ratio to baseline (95% CI)” value (cystatin C; 54 h, n=27, listed as serelaxin) was 0.87. The “Cystatin C change from baseline, geometric mean ratio to baseline (95% CI)” value (cystatin C; Day 30, n=29) was 0.97 (0.93, 1.00), the “Cystatin C change from baseline, geometric mean ratio to baseline (95% CI)” value (cystatin C; Day 180, n=29) was 0.98 (0.89, 1.07) and the “Cystatin C, geo-mean (95% CI)” value (cystatin C; 0 h (pre-dose baseline), n=29) was 0.931 (0.876, 0.990) mg/L. For the same substance, the “Cystatin C, geo-mean (95% CI)” value (cystatin C; 0 h (pre-dose baseline), n=29, listed as serelaxin) was 0.93 mg/L, the “Cystatin C, geo-mean (95% CI)” value (cystatin C; 24 h, n=27) was 0.839 (0.788, 0.893) mg/L and the “Cystatin C, geo-mean (95% CI)” value (cystatin C; 48 h, n=28) was 0.867 (0.812, 0.926) mg/L. The “Cystatin C, geo-mean (95% CI)” value (cystatin C; 54 h, n=27) was 0.796 (0.721, 0.878) mg/L, the “Cystatin C, geo-mean (95% CI)” value (cystatin C; Day 30, n=29) was 0.899 (0.842, 0.960) mg/L and the “Cystatin C, geo-mean (95% CI)” value (cystatin C; Day 180, n=29) was 0.908 (0.821, 1.004) mg/L. The “Endothelin-1 change from baseline, geometric mean ratio to baseline (95% CI)” value (endothelin-1; 24 h, n=27) was 0.82 (0.68, 0.99), the “Endothelin-1 change from baseline, geometric mean ratio to baseline (95% CI)” value (endothelin-1; 48 h, n=28) was 0.82 (0.70, 0.96) and the “Endothelin-1 change from baseline, geometric mean ratio to baseline (95% CI)” value (endothelin-1; [5]) was 0.82. The “Endothelin-1 change from baseline, geometric mean ratio to baseline (95% CI)” value (endothelin-1; 54 h, n=26) was 0.84 (0.73, 0.96), the “Endothelin-1 change from baseline, geometric mean ratio to baseline (95% CI)” value (endothelin-1; Day 30, n=29) was 0.93 (0.77, 1.13) and the “Endothelin-1 change from baseline, geometric mean ratio to baseline (95% CI)” value (endothelin-1; Day 180, n=29) was 0.88 (0.69, 1.12). For the same substance, the “Endothelin-1, geo-mean (95% CI)” value (endothelin-1; 0 h (pre-dose baseline), n=29) was 0.874 (0.630, 1.212) pmol/L, the “Endothelin-1, geo-mean (95% CI)” value (endothelin-1; 24 h, n=27) was 0.6732 (0.4626, 0.9796) pmol/L and the “Endothelin-1, geo-mean (95% CI)” value (endothelin-1; 48 h, n=28) was 0.6835 (0.4647, 1.0054) pmol/L. The “Endothelin-1, geo-mean (95% CI)” value (endothelin-1; 54 h, n=26) was 0.7535 (0.5098, 1.1138) pmol/L, the “Endothelin-1, geo-mean (95% CI)” value (endothelin-1; Day 30, n=29) was 0.8145 (0.5881, 1.1279) pmol/L and the “Endothelin-1, geo-mean (95% CI)” value (endothelin-1; Day 180, n=29) was 0.7664 (0.5436, 1.0806) pmol/L. The Anti-serelaxin antibody status [3] was “anti-serelaxin antibody negative”, the “Systemic clearance (CL), geometric mean” value ([4]; estimated from rate of infusion and Css, 48 h IV infusion 30 µg/kg/day) was 0.083 L/h/kg and the “Steady-state serum concentration (Css), geometric mean” value ([4]; serum concentration at 48 h of 48 h IV infusion 30 µg/kg/day, ELISA, non-compartmental) was 0.0151 µg/mL.
